# Laboratory results reported in publication PMC8869984, “Multifunctional Silver(I) Complexes with Metronidazole Drug Reveal Antimicrobial Properties and Antitumor Activity against Human Hepatoma and Colorectal Adenocarcinoma Cells” (Cancers, 2022).
# Like-named read-outs stand apart in the source and are kept apart here.
# Legend:
# HepG2 cells = test: MTT assay (mitochondrial activity), 72 h exposure; format: cell-based, human; details: Homo sapiens, mean ± SD, n = 3
# Experimental: The human hepatoma (HepG2) and colorectal adenocarcinoma (Caco-2) cells were purchased from the American Type Culture Collection: ATCC HB-8065 and ATCC HTB-37, respectively. These cells were cultured in Minimum Essential Medium Eagle (MEME) (ATCC). The murine fibroblasts cell line (Balb/c 3T3 clone A31) (gift from the Department of Swine Diseases of the National Veterinary Research Institute in Pulawy) was cultured in Dulbecco’s Modified Eagle Medium (DMEM) (ATCC). The media were supplemented with 10% BCS (Balb/c 3T3), 10% FBS (HepG2), 20% FBS (Caco-2), 1% L-glutamine, 1% antibiotic solution. The cells were maintained in 75 cm^2 cell culture flasks (NUNC) in a humidified incubator at 37 °C in an atmosphere of 5% CO2. The medium was refreshed every two or three days, and the cells were trypsinized by 0.25% trypsin–0.02% EDTA after reaching 70–80% confluence. Single cell suspensions were prepared and adjusted to a density of 2 × 10^5 cell/mL^−1 (HepG2), 1 × 10^5 cell/mL^−1 (Caco-2) and 5 × 10^4 cell/mL^−1 (Balb/c 3T3). The cell suspension was transferred to 96-well plates (100 µL/well) and incubated for 24 h before the exposure to the studied compounds. Stock solutions of ligands and metal complexes were prepared in sterile water and diluted with culture medium to obtain a concentration range from 0.1 to 10 µM. The final concentration of sterile water was 0.1% in the medium. […] As a negative control, cultured cells were grown in the absence of studied compounds. Each concentration was tested in six replicates in three independent experiments. Cytotoxicity was assessed after 72 h of exposure of the cells to compounds. The medium was not changed during the incubation time.
# The metabolic activity of living cells was assessed by the measurement of the activity of dehydrogenases. […] The plate was shaken for 15 min at room temperature and transferred to a microplate reader Synergy HTX multi-mode reader (BioTek® Instruments Inc., Winooski, VT, USA) to measure the absorbance at 570 nm, using a blank as a reference. Cytotoxicity was expressed as a percentage of the negative control. […]
# B. fragilis ATCC 10240 = test: micro-dilution broth method (MIC, MBC); format: cell-based, Bacteroides fragilis
# K. pneumoniae ATCC 13883 = test: micro-dilution broth method (MIC, MBC); format: cell-based, Klebsiella pneumoniae
# E. coli ATCC 25922 = test: micro-dilution broth method (MIC, MBC); format: cell-based, Escherichia coli
# V. parvula ATCC 10790 = test: micro-dilution broth method (MIC, MBC); format: cell-based, Veillonella parvula
# C. jejunii ATCC 33291 = test: micro-dilution broth method (MIC, MBC); format: cell-based, Campylobacter jejunii
# S. aureus ATCC 25923 = test: micro-dilution broth method (MIC, MBC); format: cell-based, Staphylococcus aureus
# F. nucleatum ATCC 25586 = test: micro-dilution broth method (MIC, MBC); format: cell-based, Fusobacterium nucleatum
# E. faecalis ATCC 29212 = test: micro-dilution broth method (MIC, MBC); format: cell-based, Enterococcus faecalis
# [1] = test system: C. perfringens ATCC 13124; test: microbe, parasite or virus in culture; format: cell-based, Clostridium perfringens
# P. aeruginosa ATCC 9027 = test: micro-dilution broth method (MIC, MBC); format: cell-based, Pseudomonas aeruginosa
# [2] = test system: S. epidermidis ATCC 12228; test: micro-dilution broth method (MIC, MBC); format: cell-based, Staphylococcus epidermidis
# P. acnes ATCC 11827 = test: micro-dilution broth method (MIC, MBC); format: cell-based, Propionibacterium acnes
# M. luteus ATCC 10240 = test: micro-dilution broth method (MIC, MBC); format: cell-based, Micrococcus luteus
# B. subtilis ATCC 6633 = test: micro-dilution broth method (MIC, MBC); format: cell-based, Bacillus subtilis
# P. intermedia ATCC 25611 = test: micro-dilution broth method (MIC, MBC); format: cell-based
# [3] = B. fragilis ATCC 10240, value in brackets
# [4] = K. pneumoniae ATCC 13883, value in brackets
# [5] = E. coli ATCC 25922, value in brackets
# [6] = V. parvula ATCC 10790, value in brackets
# [7] = C. jejunii ATCC 33291, value in brackets
# [8] = S. aureus ATCC 25923, value in brackets
# [9] = F. nucleatum ATCC 25586, value in brackets
# [10] = Fusobacterium nucleatum, ATCC25586
# [11] = E. faecalis ATCC 29212, value in brackets
# [12] = C. perfringens ATCC 13124, value in brackets
# [13] = Clostridium perfringens, ATCC13124
# [14] = P. aeruginosa ATCC 9027, value in brackets
# [15] = S. epidermidis ATCC 12228, value in brackets
# [16] = P. acnes ATCC 11827, value in brackets
# [17] = M. luteus ATCC 10240, value in brackets
# [18] = B. subtilis ATCC 6633, value in brackets
# [19] = P. intermedia ATCC 25611, value in brackets
smiles,measurement,setting,value
"Cc1ncc([N+](=O)[O-])n1CCO [MTZ, 2-Methyl-5-nitroimidazole-1-ethanol]",IC50,HepG2 cells,> 10 µM
same,MBC,B. fragilis ATCC 10240; [3],0.003 µM/mL
same,MIC,B. fragilis ATCC 10240; [3],0.003 µM/mL
same,MBC,"B. fragilis ATCC 10240; Bacteroides fragilis, ATCC10240, B. fragilis ATCC 10240, read-out: MBC",0.49 µg/mL
same,MIC,"B. fragilis ATCC 10240; Bacteroides fragilis, ATCC10240, B. fragilis ATCC 10240, read-out: MIC",0.49 µg/mL
same,MBC,K. pneumoniae ATCC 13883; [4],5.85 µM/mL
same,MIC,K. pneumoniae ATCC 13883; [4],5.85 µM/mL
same,MBC,"K. pneumoniae ATCC 13883; Klebsiella pneumoniae, ATCC13883, K. pneumoniae ATCC 13883, read-out: MBC",1000 µg/mL
same,MIC,"K. pneumoniae ATCC 13883; Klebsiella pneumoniae, ATCC13883, K. pneumoniae ATCC 13883, read-out: MIC",1000 µg/mL
same,MBC,E. coli ATCC 25922; [5],> 5.85 µM/mL
same,MIC,E. coli ATCC 25922; [5],> 5.85 µM/mL
same,MBC,"E. coli ATCC 25922; Escherichia coli, ATCC25922, E. coli ATCC 25922, read-out: MBC",> 1000 µg/mL
same,MIC,"E. coli ATCC 25922; Escherichia coli, ATCC25922, E. coli ATCC 25922, read-out: MIC",> 1000 µg/mL
same,MBC,V. parvula ATCC 10790; [6],0.01 µM/mL
same,MIC,V. parvula ATCC 10790; [6],0.01 µM/mL
same,MBC,"V. parvula ATCC 10790; Veillonella parvula, ATCC10790",1.95 µg/mL
same,MIC,"V. parvula ATCC 10790; Veillonella parvula, ATCC10790",1.95 µg/mL
same,MBC,C. jejunii ATCC 33291; [7],> 5.85 µM/mL
same,MIC,C. jejunii ATCC 33291; [7],2.93 µM/mL
same,MBC,"C. jejunii ATCC 33291; Campylobacter, ATCC33291, C. jejunii ATCC 33291, read-out: MBC",> 1000 µg/mL
same,MIC,"C. jejunii ATCC 33291; Campylobacter, ATCC33291, C. jejunii ATCC 33291, read-out: MIC",500 µg/mL
same,MBC,S. aureus ATCC 25923; [8],> 5.85 µM/mL
same,MIC,S. aureus ATCC 25923; [8],> 5.85 µM/mL
same,MBC,"S. aureus ATCC 25923; Staphylococcus aureus, ATCC25923, S. aureus ATCC 25923, read-out: MBC",> 1000 µg/mL
same,MIC,"S. aureus ATCC 25923; Staphylococcus aureus, ATCC25923, S. aureus ATCC 25923, read-out: MIC",> 1000 µg/mL
same,MBC,F. nucleatum ATCC 25586; [9],0.01 µM/mL
same,MIC,F. nucleatum ATCC 25586; [9],0.01 µM/mL
same,MBC,F. nucleatum ATCC 25586; [10],1.95 µg/mL
same,MIC,F. nucleatum ATCC 25586; [10],1.95 µg/mL
same,MBC,E. faecalis ATCC 29212; [11],> 5.85 µM/mL
same,MIC,E. faecalis ATCC 29212; [11],> 5.85 µM/mL
same,MBC,"E. faecalis ATCC 29212; Enterococcus faecalis, ATCC29212, E. faecalis ATCC 29212, read-out: MBC",> 1000 µg/mL
same,MIC,"E. faecalis ATCC 29212; Enterococcus faecalis, ATCC29212, E. faecalis ATCC 29212, read-out: MIC",> 1000 µg/mL
same,MBC,[1]; [12],0.01 µM/mL
same,MIC,[1]; [12],0.01 µM/mL
same,MBC,[1]; [13],1.95 µg/mL
same,MIC,[1]; [13],1.95 µg/mL
same,MBC,P. aeruginosa ATCC 9027; [14],> 5.85 µM/mL
same,MIC,P. aeruginosa ATCC 9027; [14],> 5.85 µM/mL
same,MBC,"P. aeruginosa ATCC 9027; Pseudomonas aeruginosa, ATCC9027, P. aeruginosa ATCC 9027, read-out: MBC",> 1000 µg/mL
same,MIC,"P. aeruginosa ATCC 9027; Pseudomonas aeruginosa, ATCC9027, P. aeruginosa ATCC 9027, read-out: MIC",> 1000 µg/mL
same,MBC,[2]; [15],2.93 µM/mL
same,MIC,[2]; [15],2.93 µM/mL
same,MBC,"[2]; Staphylococcus epidermidis, ATCC12228, S. epidermidis ATCC 12228, read-out: MBC",500 µg/mL
same,MIC,"[2]; Staphylococcus epidermidis, ATCC12228, S. epidermidis ATCC 12228, read-out: MIC",500 µg/mL
same,MBC,"P. acnes ATCC 11827; Cutibacterium acnes, ATCC11827, P. acnes ATCC 11827, read-out: MBC",> 1000 µg/mL
same,MIC,"P. acnes ATCC 11827; Cutibacterium acnes, ATCC11827, P. acnes ATCC 11827, read-out: MIC",> 1000 µg/mL
same,MBC,P. acnes ATCC 11827; [16],> 5.85 µM/mL
same,MIC,P. acnes ATCC 11827; [16],> 5.85 µM/mL
same,MBC,M. luteus ATCC 10240; [17],> 5.85 µM/mL
same,MIC,M. luteus ATCC 10240; [17],5.85 µM/mL
same,MBC,"M. luteus ATCC 10240; Micrococcus luteus, ATCC10240, M. luteus ATCC 10240, read-out: MBC",> 1000 µg/mL
same,MIC,"M. luteus ATCC 10240; Micrococcus luteus, ATCC10240, M. luteus ATCC 10240, read-out: MIC",1000 µg/mL
same,MBC,B. subtilis ATCC 6633; [18],1.46 µM/mL
same,MIC,B. subtilis ATCC 6633; [18],0.73 µM/mL
same,MBC,"B. subtilis ATCC 6633; Bacillus subtilis, ATCC6633, B. subtilis ATCC 6633, read-out: MBC",250 µg/mL
same,MBC,P. intermedia ATCC 25611; [19],> 5.85 µM/mL
same,MIC,P. intermedia ATCC 25611; [19],5.85 µM/mL
same,MBC,"P. intermedia ATCC 25611; Prevotella intermedia, ATCC25611, P. intermedia ATCC 25611, read-out: MBC",> 1000 µg/mL
same,MIC,"P. intermedia ATCC 25611; Prevotella intermedia, ATCC25611, P. intermedia ATCC 25611, read-out: MIC",1000 µg/mL
